From patent US20070128217A1 (priority 2003, published 2007)

Tests used:
[1] = test system: antibodies in sera from SARS patients (sera 1a, 1b, 2, 6, 37, 62, London, SARS-yellow, SARS-green); assay type: binding, human; set-up: Binding of serum 6 to linear peptides of protein X1 of SARS-CoV Urbani / Binding of serum 37 to linear peptides of protein X1 of SARS-CoV Urbani / Binding of serum 6 to looped/cyclic peptide (PEPSCAN-ELISA) / Binding of serum 37 to looped/cyclic peptide (PEPSCAN-ELISA) / Binding of serum 37 to looped/cyclic peptides of protein X1 of SARS-CoV Urbani / Binding of serum 6 to linear peptides of protein X2 / Binding of serum 37 to linear peptides of protein X2 / Binding of serum 37 to looped/cyclic peptides of protein X2 of SARS-CoV Urbani / Binding of serum 6 to linear peptides of protein M of SARS-CoV Urbani / Binding of serum 37 to linear peptides of protein M of SARS-CoV Urbani / Binding of serum 6 to looped/cyclic peptides of protein M of SARS-CoV Urbani / Binding of serum 37 to looped/cyclic peptides of protein M of SARS-CoV Urbani / Binding of serum 6 to linear peptides of protein X3 of SARS-CoV Urbani / Binding of serum 37 to linear peptides of protein X3 of SARS-CoV Urbani / Binding of serum 37 to looped/cyclic peptides of protein X3 of SARS-CoV Urbani / Binding of serum 6 to linear peptides of protein X4 of SARS-CoV Urbani / Binding of serum 37 to linear peptides of protein X4 of SARS-CoV Urbani / Binding of serum 37 to looped/cyclic peptides of protein X4 of SARS-CoV Urbani / Binding of serum 6 to linear peptides of protein X5 of SARS-CoV Urbani / Binding of serum 37 to linear peptides of protein X5 of SARS-CoV Urbani / Binding of serum 37 to looped/cyclic peptides of protein X5 of SARS-CoV Urbani / Binding of serum 6 to linear peptides of protein N of SARS-CoV Urbani / Binding of serum 37 to linear peptides of protein N of SARS-CoV Urbani / Binding of serum 6 to linear peptide (PEPSCAN-ELISA) / Binding of serum 1a to looped/cyclic peptides of protein N of SARS-CoV Urbani / Binding of serum 1b to looped/cyclic peptides of protein N of SARS-CoV Urbani / Binding of serum 2 to looped/cyclic peptides of protein N of SARS-CoV Urbani / Binding of serum 6 to looped/cyclic peptides of protein N of SARS-CoV Urbani / Binding of serum 37 to looped/cyclic peptides of protein N of SARS-CoV Urbani / Binding of serum 62 to looped/cyclic peptides of protein N of SARS-CoV Urbani / Binding of serum London to looped/cyclic peptides of protein N of SARS-CoV Urbani / Binding of serum SARS-green to looped/cyclic peptides of protein N of SARS-CoV Urbani: unit not given here
[2] = test system: control sera (pooled serum of ten healthy LUMC hospital workers; commercial negative donor pooled serum from the Dutch bloodbank); assay type: binding, human; set-up: Binding of Control serum LUMC to linear peptides / Binding of Control serum Blood-bank to linear peptides / Binding of Control serum LUMC to looped peptides / Binding of Control Serum Blood-Bank to Looped peptides / Binding of Control serum LUMC to linear peptides of the protein M of SARS-CoV Urbani / Binding of Control serum Blood-bank to linear peptides of the protein M of SARS-CoV Urbani / Binding of Control serum LUMC to looped peptides of the protein M of SARS-CoV Urbani / Binding of Control Serum Blood-Bank to Looped peptides of the protein M of SARS-CoV Urbani: unit not given here
[3] = test system: rabbit serum obtained by immunizing a rabbit with the SARS-CoV strain Frankfurt 1; assay type: binding; set-up: Binding of a rabbit serum to linear peptides / Binding of a rabbit serum to looped peptides / Rabbit serum linear peptides / Rabbit serum looped peptides / Binding of a rabbit serum to linear peptides of protein N of SARS-CoV Urbani (Rabbit serum linear peptides) / Binding of a rabbit serum to looped/cyclic peptides of protein N of SARS-CoV Urbani (Rabbit serum looped peptides): unit not given here
[4] = test system: recombinant human anti-SARS-CoV antibody 03-018; assay type: binding; set-up: Binding of antibody 03-018 to linear peptides of the N protein of SARS-CoV Urbani / Binding of antibody 03-018 to looped/cyclic peptides of the N protein of SARS-CoV Urbani: unit not given here

SDNGPQSNQRSAPRI
0.6: Binding of Control serum Blood-bank to linear peptides [2]
0.5: Binding of serum 37 to looped/cyclic peptides of protein N of SARS-CoV Urbani [1] | Binding of serum London to linear peptides of protein N of SARS-CoV Urbani [1] | Binding of serum SARS-yellow to linear peptides of protein N of SARS-CoV Urbani [1] | Binding of Control Serum Blood-Bank to Looped peptides [2] | Binding of Control serum LUMC to linear peptides [2] | Binding of Control serum LUMC to looped peptides [2]
0.3: Binding of serum 1a to looped/cyclic peptides of protein N of SARS-CoV Urbani [1] | Binding of serum 2 to looped/cyclic peptides of protein N of SARS-CoV Urbani [1] | Binding of serum 6 to looped/cyclic peptides of protein N of SARS-CoV Urbani [1]
0.1: Binding of serum 2 to linear peptides of protein N of SARS-CoV Urbani [1] | Binding of serum SARS-yellow to looped/cyclic peptides of protein N of SARS-CoV Urbani [1] | Binding of a rabbit serum to linear peptides of protein N of SARS-CoV Urbani (Rabbit serum linear peptides) [3]
0.2: Binding of serum 1a to linear peptides of protein N of SARS-CoV Urbani [1] | Binding of serum 6 to linear peptides of protein N of SARS-CoV Urbani [1] | Binding of serum 37 to linear peptides of protein N of SARS-CoV Urbani [1] | Binding of serum SARS-green to looped/cyclic peptides of protein N of SARS-CoV Urbani [1] | Binding of a rabbit serum to looped/cyclic peptides of protein N of SARS-CoV Urbani (Rabbit serum looped peptides) [3] | Binding of antibody 03-018 to looped/cyclic peptides of the N protein of SARS-CoV Urbani [4]
0.4: Binding of serum 62 to linear peptides of protein N of SARS-CoV Urbani [1] | Binding of serum 62 to looped/cyclic peptides of protein N of SARS-CoV Urbani [1] | Binding of serum London to looped/cyclic peptides of protein N of SARS-CoV Urbani [1]
0.0: Binding of serum 1b to linear peptides of protein N of SARS-CoV Urbani [1] | Binding of serum 1b to looped/cyclic peptides of protein N of SARS-CoV Urbani [1] | Binding of serum SARS-green to linear peptides of protein N of SARS-CoV Urbani [1] | Binding of antibody 03-018 to linear peptides of the N protein of SARS-CoV Urbani [4]

SGGGETALALLLLDR
0.1: Binding of serum 1b to linear peptide (PEPSCAN-ELISA) [1] | Binding of serum SARS-green to linear peptide (PEPSCAN-ELISA) [1] | Binding of serum SARS-green to looped/cyclic peptides of protein N of SARS-CoV Urbani [1] | Binding of antibody 03-018 to linear peptides of the N protein of SARS-CoV Urbani [4]
0.3: Binding of serum 1a to linear peptide (PEPSCAN-ELISA) [1] | Binding of serum 6 to looped/cyclic peptides of protein N of SARS-CoV Urbani [1]
0.6: Binding of Control serum LUMC to linear peptides [2]
0.2: Binding of serum 1b to looped/cyclic peptides of protein N of SARS-CoV Urbani [1] | Binding of serum 2 to linear peptide (PEPSCAN-ELISA) [1] | Binding of serum 6 to linear peptide (PEPSCAN-ELISA) [1] | Binding of a rabbit serum to linear peptides of protein N of SARS-CoV Urbani (Rabbit serum linear peptides) [3] | Binding of antibody 03-018 to looped/cyclic peptides of the N protein of SARS-CoV Urbani [4]
0.7: Binding of serum 37 to linear peptide (PEPSCAN-ELISA) [1] | Binding of serum 37 to looped/cyclic peptides of protein N of SARS-CoV Urbani [1] | Binding of serum 62 to linear peptide (PEPSCAN-ELISA) [1] | Binding of serum 62 to looped/cyclic peptides of protein N of SARS-CoV Urbani [1] | Binding of serum SARS-yellow to looped/cyclic peptides of protein N of SARS-CoV Urbani [1] | Binding of Control Serum Blood-Bank to Looped peptides [2] | Binding of Control serum Blood-bank to linear peptides [2] | Binding of Control serum LUMC to looped peptides [2] | Binding of a rabbit serum to looped/cyclic peptides of protein N of SARS-CoV Urbani (Rabbit serum looped peptides) [3]
0.4: Binding of serum 1a to looped/cyclic peptides of protein N of SARS-CoV Urbani [1] | Binding of serum London to linear peptide (PEPSCAN-ELISA) [1]
0.5: Binding of serum 2 to looped/cyclic peptides of protein N of SARS-CoV Urbani [1] | Binding of serum London to looped/cyclic peptides of protein N of SARS-CoV Urbani [1] | Binding of serum SARS-yellow to linear peptide (PEPSCAN-ELISA) [1]

SGKGQQQQGQTVTKK
1.1: Binding of Control serum LUMC to linear peptides [2]
0.6: Binding of serum 37 to looped/cyclic peptides of protein N of SARS-CoV Urbani [1] | Binding of serum London to linear peptide (PEPSCAN-ELISA) [1] | Binding of Control Serum Blood-Bank to Looped peptides [2] | Binding of Control serum LUMC to looped peptides [2]
0.2: Binding of serum 1b to looped/cyclic peptides of protein N of SARS-CoV Urbani [1] | Binding of serum 2 to linear peptide (PEPSCAN-ELISA) [1] | Binding of serum SARS-green to looped/cyclic peptides of protein N of SARS-CoV Urbani [1] | Binding of a rabbit serum to linear peptides of protein N of SARS-CoV Urbani (Rabbit serum linear peptides) [3] | Binding of antibody 03-018 to looped/cyclic peptides of the N protein of SARS-CoV Urbani [4]
1.0: Binding of Control serum Blood-bank to linear peptides [2]
0.5: Binding of serum 62 to looped/cyclic peptides of protein N of SARS-CoV Urbani [1] | Binding of serum SARS-green to linear peptide (PEPSCAN-ELISA) [1]
0.7: Binding of serum 37 to linear peptide (PEPSCAN-ELISA) [1] | Binding of serum SARS-yellow to linear peptide (PEPSCAN-ELISA) [1]
0.1: Binding of serum 1b to linear peptide (PEPSCAN-ELISA) [1] | Binding of antibody 03-018 to linear peptides of the N protein of SARS-CoV Urbani [4]
0.9: Binding of serum 62 to linear peptide (PEPSCAN-ELISA) [1]
0.3: Binding of serum 1a to linear peptide (PEPSCAN-ELISA) [1] | Binding of serum 1a to looped/cyclic peptides of protein N of SARS-CoV Urbani [1] | Binding of serum 2 to looped/cyclic peptides of protein N of SARS-CoV Urbani [1] | Binding of serum 6 to looped/cyclic peptides of protein N of SARS-CoV Urbani [1] | Binding of serum SARS-yellow to looped/cyclic peptides of protein N of SARS-CoV Urbani [1]
0.4: Binding of serum 6 to linear peptide (PEPSCAN-ELISA) [1] | Binding of serum London to looped/cyclic peptides of protein N of SARS-CoV Urbani [1] | Binding of a rabbit serum to looped/cyclic peptides of protein N of SARS-CoV Urbani (Rabbit serum looped peptides) [3]

SGPDDQIGYYRRATR
0.2: Binding of serum 1a to linear peptides of protein N of SARS-CoV Urbani [1] | Binding of serum 2 to linear peptides of protein N of SARS-CoV Urbani [1] | Binding of serum 6 to linear peptides of protein N of SARS-CoV Urbani [1]
0.8: Binding of serum 37 to looped/cyclic peptides of protein N of SARS-CoV Urbani [1] | Binding of Control Serum Blood-Bank to Looped peptides [2] | Binding of Control serum Blood-bank to linear peptides [2]
recognized: Recognition of the peptide by the rabbit serum [3]
0.7: Binding of serum 62 to looped/cyclic peptides of protein N of SARS-CoV Urbani [1] | Binding of serum SARS-yellow to looped/cyclic peptides of protein N of SARS-CoV Urbani [1] | Binding of Control serum LUMC to linear peptides [2]
0.6: Binding of serum 37 to linear peptides of protein N of SARS-CoV Urbani [1] | Binding of serum 62 to linear peptides of protein N of SARS-CoV Urbani [1] | Binding of serum SARS-yellow to linear peptides of protein N of SARS-CoV Urbani [1]
0.5: Binding of serum 2 to looped/cyclic peptides of protein N of SARS-CoV Urbani [1] | Binding of serum London to looped/cyclic peptides of protein N of SARS-CoV Urbani [1] | Binding of serum SARS-green to looped/cyclic peptides of protein N of SARS-CoV Urbani [1]
0.3: Binding of serum 1b to looped/cyclic peptides of protein N of SARS-CoV Urbani [1] | Binding of antibody 03-018 to looped/cyclic peptides of the N protein of SARS-CoV Urbani [4]
0.1: Binding of serum 1b to linear peptides of protein N of SARS-CoV Urbani [1] | Binding of antibody 03-018 to linear peptides of the N protein of SARS-CoV Urbani [4]
0.9: Binding of Control serum LUMC to looped peptides [2]
0.4: Binding of serum 1a to looped/cyclic peptides of protein N of SARS-CoV Urbani [1] | Binding of serum 6 to looped/cyclic peptides of protein N of SARS-CoV Urbani [1] | Binding of serum London to linear peptides of protein N of SARS-CoV Urbani [1] | Binding of serum SARS-green to linear peptides of protein N of SARS-CoV Urbani [1]
